{"source": "paper PMC7821949", "about": "(Biomolecules, 2020)", "origin": "cited, not measured here", "test_system": "α-Bgt", "data": [{"substance": "HAP: Combinatorial high-affinity peptide HAP. (WRYYESSLLPYPD)", "values": [{"measurement": "affinity for α-Bgt", "value": "2 to 4", "unit": "nM"}]}]}
